Columns and labels:
[1] = tested on: neuraminidase (NA) of A(H3N2) viruses; format: biochemical, influenza A(H3N2) virus
[2] = tested on: neuraminidase (NA) of B/Yamagata-lineage viruses; format: biochemical, influenza B/Yamagata-lineage virus
[3] = tested on: neuraminidase (NA) of A(H1N1)pdm09 viruses; format: biochemical, influenza A(H1N1)pdm09 virus
[4] = tested on: neuraminidase (NA) of B/Victoria-lineage viruses; format: biochemical, influenza B/Victoria-lineage virus

Structure (SMILES)	inhibition phenotype in NAI assay (NI/RI/HRI) [1]	IC50 fold-change [1] [fold]	IC50 fold-change compared to reference median IC50 values [1] [fold]	inhibition phenotype in NAI assay (NI/RI/HRI) [2]	inhibition phenotype in NAI assay (NI/RI/HRI) [3]	IC50 fold-change [4]
[H]/N=C(\N)N[C@H]1C=C(C(=O)O)O[C@@H]([C@H](OC)[C@H](O)CO)[C@@H]1NC(C)=O [Laninamivir, laninamivir]	borderline NI					
CCOC(=O)C1=C[C@@H](OC(CC)CC)[C@H](NC(C)=O)[C@@H](N)C1 [Oseltamivir, oseltamivir]		87	87	borderline RI		
CC(=O)N[C@H]1[C@H]([C@H](O)[C@H](O)CO)OC(C(=O)O)=C[C@@H]1N=C(N)N [Zanamivir, zanamivir]		32	32		borderline RI	14–17 fold

Reference: article PMC5667636 (Antiviral Research, 2017)
